# Source: patent US7998989B2, “2-Imino-1,3-thiazoline-based compounds and T-type calcium channel inhibitors containing the same” (Korea Institute of Science and Technology, priority 2007, dated 2011)
# What was measured:
# [1] = molecular target: T1, α1G T-type calcium channel (Homo sapiens, UniProt O43497); experiment: Assay for % inhibiting activity against T-type calcium channel using FDSS6000 (fluo-3 calcium imaging, KCl activation); type: cell-based; conditions: HEK293, 10 μM; HEK293 cells stably expressing α1G T-type calcium channel and Kir2.1; compounds of the examples; read-out: FDSS (% inhibition)/10uM
# T1 construct: host or cells: HEK293
# T1 sequence (O43497 whole entry): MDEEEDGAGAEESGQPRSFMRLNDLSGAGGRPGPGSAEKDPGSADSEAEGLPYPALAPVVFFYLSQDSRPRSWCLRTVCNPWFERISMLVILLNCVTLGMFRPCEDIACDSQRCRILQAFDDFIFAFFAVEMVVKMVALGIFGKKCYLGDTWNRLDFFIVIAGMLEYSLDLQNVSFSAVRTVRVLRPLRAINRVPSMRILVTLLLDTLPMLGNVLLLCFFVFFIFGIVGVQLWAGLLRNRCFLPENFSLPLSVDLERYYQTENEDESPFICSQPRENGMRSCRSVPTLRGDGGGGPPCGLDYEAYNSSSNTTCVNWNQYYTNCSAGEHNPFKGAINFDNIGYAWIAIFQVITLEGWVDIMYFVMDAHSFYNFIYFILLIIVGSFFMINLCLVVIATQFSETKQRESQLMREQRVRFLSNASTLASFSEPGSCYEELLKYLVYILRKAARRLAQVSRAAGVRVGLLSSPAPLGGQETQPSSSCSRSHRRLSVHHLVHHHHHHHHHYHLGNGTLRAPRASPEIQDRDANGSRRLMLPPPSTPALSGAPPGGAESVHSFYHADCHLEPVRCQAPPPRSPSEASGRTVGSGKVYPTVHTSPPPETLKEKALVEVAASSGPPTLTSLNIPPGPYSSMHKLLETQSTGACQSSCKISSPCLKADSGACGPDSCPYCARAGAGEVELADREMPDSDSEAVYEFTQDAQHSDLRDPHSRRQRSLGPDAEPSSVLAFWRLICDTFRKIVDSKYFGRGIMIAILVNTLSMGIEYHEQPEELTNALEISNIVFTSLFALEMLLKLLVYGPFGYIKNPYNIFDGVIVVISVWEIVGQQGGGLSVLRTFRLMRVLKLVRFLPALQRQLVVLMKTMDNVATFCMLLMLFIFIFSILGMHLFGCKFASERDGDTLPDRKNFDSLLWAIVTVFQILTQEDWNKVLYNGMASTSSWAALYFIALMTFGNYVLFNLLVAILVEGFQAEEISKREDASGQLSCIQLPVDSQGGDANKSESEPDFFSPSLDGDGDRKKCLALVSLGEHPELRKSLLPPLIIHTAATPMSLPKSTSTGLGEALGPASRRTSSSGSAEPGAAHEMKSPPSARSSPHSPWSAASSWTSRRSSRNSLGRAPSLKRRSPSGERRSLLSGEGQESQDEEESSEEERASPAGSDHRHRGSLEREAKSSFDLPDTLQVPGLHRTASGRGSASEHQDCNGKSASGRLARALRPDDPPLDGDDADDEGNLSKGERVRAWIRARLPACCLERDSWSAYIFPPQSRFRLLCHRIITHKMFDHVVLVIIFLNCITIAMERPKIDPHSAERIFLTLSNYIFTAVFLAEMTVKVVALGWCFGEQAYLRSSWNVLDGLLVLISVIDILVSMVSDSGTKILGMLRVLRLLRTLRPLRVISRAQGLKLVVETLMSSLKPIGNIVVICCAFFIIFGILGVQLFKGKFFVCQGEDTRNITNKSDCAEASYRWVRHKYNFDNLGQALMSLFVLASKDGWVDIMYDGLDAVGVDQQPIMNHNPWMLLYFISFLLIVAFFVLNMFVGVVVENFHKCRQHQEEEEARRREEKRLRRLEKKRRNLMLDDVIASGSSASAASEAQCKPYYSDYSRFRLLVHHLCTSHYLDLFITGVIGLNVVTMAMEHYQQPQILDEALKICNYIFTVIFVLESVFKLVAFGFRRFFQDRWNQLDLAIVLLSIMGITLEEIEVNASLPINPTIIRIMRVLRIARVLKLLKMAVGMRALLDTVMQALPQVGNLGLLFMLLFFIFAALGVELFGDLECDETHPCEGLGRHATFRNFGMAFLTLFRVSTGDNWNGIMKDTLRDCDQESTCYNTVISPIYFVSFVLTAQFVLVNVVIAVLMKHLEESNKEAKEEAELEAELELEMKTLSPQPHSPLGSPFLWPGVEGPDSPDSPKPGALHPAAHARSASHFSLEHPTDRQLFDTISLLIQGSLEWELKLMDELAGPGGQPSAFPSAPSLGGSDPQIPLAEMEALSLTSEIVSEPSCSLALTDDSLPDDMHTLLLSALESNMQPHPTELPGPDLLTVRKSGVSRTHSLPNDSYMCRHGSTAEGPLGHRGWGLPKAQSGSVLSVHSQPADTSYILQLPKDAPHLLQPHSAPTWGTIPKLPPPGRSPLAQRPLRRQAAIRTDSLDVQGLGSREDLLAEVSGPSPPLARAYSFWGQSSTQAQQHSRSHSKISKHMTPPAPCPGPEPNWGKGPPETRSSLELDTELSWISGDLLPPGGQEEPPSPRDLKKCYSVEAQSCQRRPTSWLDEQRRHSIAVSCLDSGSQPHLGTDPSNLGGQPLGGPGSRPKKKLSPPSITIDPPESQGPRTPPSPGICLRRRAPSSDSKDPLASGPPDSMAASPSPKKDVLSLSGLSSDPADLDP
# Procedure, shortened: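 HEK293 cells stably expressing α1G and Kir2.1 loaded with 5 μM fluo-3/AM, then in HEPES buffer (pH 7.4) with 10 mM CaCl2. Compound applied 75 s before 75 mM KCl; intracellular Ca2+ read as […] area, % inhibition relative to untreated control.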
Structure (SMILES),inhibition at 10 µM [1] [%],melting point [°C]
"Cl.O=C(CC1CSC(=NC2CCCCC2)N1Cc1ccccc1)Nc1cc(Cl)cc(Cl)c1 (stereo not drawn) [KHG24422, (2-cyclohexylimino-3-benzyl-1,3-thiazolidine-4-yl)-N-(3,5-dichlorophenyl)-acetamide hydrochloride]",46.3,178 to 179
"CN1C(=NC2CCCCCC2)SCC1CC(=O)Nc1ccc([N+](=O)[O-])cc1.Cl (stereo not drawn) [KHG24445, (2-cycloheptylimino-3-methyl-1,3-thiazolidine-4-yl)-N-(4-nitrophenyl)-acetamide hydrochloride]",50.8,242
"CCCCc1ccc(NC(=O)CC2C(C)SC(=NC3CCCCCC3)N2C)cc1.Cl (stereo not drawn) [KHG24516, (2-cycloheptylimino-3,5-dimethyl-1,3-thiazolidine-4-yl)-N-(4-n-butylphenyl)-acetamide hydrochloride]",54.6,247 to 249
"CCc1ccc(NC(=O)CC2C(C)SC(=NC3CCCCCC3)N2C)cc1.Cl (stereo not drawn) [KHG24517, (2-cycloheptylimino-3,5-dimethyl-1,3-thiazolidine-4-yl)-N-(4-ethylphenyl)-acetamide hydrochloride]",49.6,262 to 264
"CC(C)c1ccc(NC(=O)CC2C(C)SC(=NC3CCCCCC3)N2C)cc1.Cl (stereo not drawn) [KHG24519, (2-cycloheptylimino-3,5-dimethyl-1,3-thiazolidine-4-yl)-N-(4-isopropylphenyl)-acetamide hydrochloride]",55.7,260 to 262
"CC1SC(=NC2CCCCCC2)N(C)C1CC(=O)Nc1ccc(C(F)(F)F)cc1.Cl (stereo not drawn) [KHG24520, (2-cycloheptylimino-3,5-dimethyl-1,3-thiazolidine-4-yl)-N-(4-trifluoromethylphenyl)-acetamide hydrochloride]",64.8,261 to 263
"CC1SC(=NC2CCCCCC2)N(C)C1CC(=O)Nc1ccc(C(C)(C)C)cc1.Cl (stereo not drawn) [KHG24521, (2-cycloheptylimino-3,5-dimethyl-1,3-thiazolidine-4-yl)-N-(4-t-butylphenyl)-acetamide hydrochloride]",54.3,239 to 241
"CC1SC(=NC2CCCCC2)N(C)C1CC(=O)Nc1ccc(OC(F)(F)F)cc1.Cl (stereo not drawn) [KHG24524, (2-cyclohexylimino-3,5-dimethyl-1,3-thiazolidine-4-yl)-N-(4-trifluoromethoxyphenyl)-acetamide hydrochloride]",41.3,178 to 180
"CC1SC(=NC2CCCCC2)N(C)C1CC(=O)Nc1ccc(C(F)(F)F)cc1.Cl (stereo not drawn) [KHG24527, (2-cyclohexylimino-3,5-dimethyl-1,3-thiazolidine-4-yl)-N-(4-trifluoromethylphenyl)-acetamide hydrochloride]",47,190 to 192
"CC(C)c1cccc(NC(=O)CC2CSC(=NC3CCCCC3)N2C)c1.Cl (stereo not drawn) [KHG24528, (2-cyclohexylimino-3-methyl-1,3-thiazolidine-4-yl)-N-(3-isopropylphenyl)-acetamide hydrochloride]",54.2,160
"CN1C(=NC2CCCCC2)SCC1CC(=O)Nc1cccc(Cl)c1Cl.Cl (stereo not drawn) [KHG24530, (2-cyclohexylimino-3-methyl-1,3-thiazolidine-4-yl)-N-(2,3-dichlorophenyl)-acetamide hydrochloride]",38.5,215
"CN1C(=NC2CCCCC2)SCC1CC(=O)Nc1ccc(Cl)c(Cl)c1.Cl (stereo not drawn) [KHG24531, (2-cyclohexylimino-3-methyl-1,3-thiazolidine-4-yl)-N-(3,4-dichlorophenyl)-acetamide hydrochloride]",48.4,223
"CN1C(=NC2CCCCC2)SCC1CC(=O)Nc1cc(Cl)ccc1Cl.Cl (stereo not drawn) [KHG24532, (2-cyclohexylimino-3-methyl-1,3-thiazolidine-4-yl)-N-(2,5-dichlorophenyl)-acetamide hydrochloride]",52.5,208
"CN1C(=NC2CCCCC2)SCC1CC(=O)Nc1cc(Cl)c(Cl)cc1Cl.Cl (stereo not drawn) [KHG24533, (2-cyclohexylimino-3-methyl-1,3-thiazolidine-4-yl)-N-(2,4,5-trichlorophenyl)-acetamide hydrochloride]",48.9,186

# The remaining lines, values ahead:
inhibition at 10 µM [1] [%],melting point [°C],Structure (SMILES)
51.6,262 to 264,"CC1SC(=NC2CCCCC2)N(C)C1CC(=O)Nc1ccc(Cl)cc1 (stereo not drawn) [KHG24480, (2-cyclohexylimino-3,5-dimethyl-1,3-thiazolidine-4-yl)-N-(4-chlorophenyl)-acetamide]"
52.4,260 to 262,"CC1SC(=NC2CCCCC2)N(C)C1CC(=O)Nc1ccc(Br)cc1 (stereo not drawn) [KHG24482, (2-cyclohexylimino-3,5-dimethyl-1,3-thiazolidine-4-yl)-N-(4-bromophenyl)-acetamide]"
52.5,264 to 265,"CC1SC(=NC2CCCCC2)N(C)C1CC(=O)Nc1cc(Cl)cc(Cl)c1 (stereo not drawn) [KHG24483, (2-cyclohexylimino-3,5-dimethyl-1,3-thiazolidine-4-yl)-N-(3,5-dichlorophenyl)-acetamide]"
32.8,249 to 251,"CC1SC(=NC2CCCCC2)N(C)C1CC(=O)Nc1cc([N+](=O)[O-])ccc1F (stereo not drawn) [KHG24484, (2-cyclohexylimino-3,5-dimethyl-1,3-thiazolidine-4-yl)-N-(2-fluoro-5-nitrophenyl)-acetamide]"
55.8,253 to 254,"CC1SC(=NC2CCCCCC2)N(C)C1CC(=O)Nc1ccc(Br)cc1 (stereo not drawn) [KHG24486, (2-cycloheptylimino-3,5-dimethyl-1,3-thiazolidine-4-yl)-N-(4-bromophenyl)-acetamide]"
50.7,229 to 231,"CC1SC(=NC2CCCCCC2)N(C)C1CC(=O)Nc1ccc(F)cc1.Cl (stereo not drawn) [KHG24518, (2-cycloheptylimino-3,5-dimethyl-1,3-thiazolidine-4-yl)-N-(4-fluorophenyl)-acetamide hydrochloride]"
47.9,244 to 246,"CC1SC(=NC2CCCCC2)N(C)C1CC(=O)Nc1cc(CF)cc(CF)c1.Cl (stereo not drawn) [KHG24522, (2-cyclohexylimino-3,5-dimethyl-1,3-thiazolidine-4-yl)-N-(3,5-difluoromethylphenyl)-acetamide hydrochloride]"
46.3,265 to 266,"CCc1ccc(NC(=O)CC2C(C)SC(=NC3CCCCC3)N2C)cc1.Cl (stereo not drawn) [KHG24523, (2-cyclohexylimino-3,5-dimethyl-1,3-thiazolidine-4-yl)-N-(4-ethylphenyl)-acetamide hydrochloride]"
31.5,267 to 269,"CC1SC(=NC2CCCCC2)N(C)C1CC(=O)Nc1ccc(F)cc1.Cl (stereo not drawn) [KHG24525, (2-cyclohexylimino-3,5-dimethyl-1,3-thiazolidine-4-yl)-N-(4-fluorophenyl)-acetamide hydrochloride]"
42.3,265 to 267,"CC(C)c1ccc(NC(=O)CC2C(C)SC(=NC3CCCCC3)N2C)cc1.Cl (stereo not drawn) [KHG24526, (2-cyclohexylimino-3,5-dimethyl-1,3-thiazolidine-4-yl)-N-(4-isopropylphenyl)-acetamide hydrochloride]"
